Laboratory results as given in patent US11701372B2, “Inhalation formulations of 1'-cyano substituted carba-nucleoside analogs” (priority 2020, dated 2023).
Where two headings read alike, the source gives them in different places.

Columns and labels:
[1] = In use testing of reconstituted solutions in IV bags and IV tubings; type: physicochemical
Excerpt: The IV bags and IV tubings were sampled over time and tested for % assay/degradation.

[2] = type: physicochemical; conditions: for % assay/degs / Total degs / pH: T = 0
Protocol: For each condition, samples were staged at ambient and refrigerated conditions. Samples were analyzed for % assay/degs, appearance, reconstitution time, pH, and compared to T=0. The structures of the key impurities/metabolites are shown below.

SMILES: CCC(CC)COC(=O)[C@H](C)N[P@](=O)(OC[C@H]1O[C@@](C#N)(c2ccc3c(N)ncnn23)[C@H](O)[C@@H]1O)Oc1ccccc1 [Formula Ia, (S)-2-ethylbutyl 2-(((S)-(((2R,3S,4R,5R)-5-(4-aminopyrrolo[2,1-f][1,2,4]triazin-7-yl)-5-cyano-3,4-dihydroxytetrahydrofuran-2-yl)methoxy)(phenoxy)phosphoryl)amino)propanoate]
- Total degradation ([1]; 0 h, 0.3 mg/mL): 0.2 % w/w
- Total degradation ([1]; 0 h, 2 mg/mL): 0.2 % w/w
- Total degradation ([1]; 4 h, 0.3 mg/mL): 0.2 % w/w
- Total degradation ([1]; 4 h, 2 mg/mL): 0.2 % w/w
- Total degradation ([1]; 6 h, 0.3 mg/mL): 0.2 % w/w
- Total degradation ([1]; 6 h, 2 mg/mL): 0.2 % w/w
- Total degradation ([1]; 8 h, 0.3 mg/mL): 0.2 % w/w
- Total degradation ([1]; 8 h, 2 mg/mL): 0.2 % w/w
- Total degradation ([1]; 24 h, 0.3 mg/mL): 0.2 % w/w
- Total degradation ([1]; 24 h, 2 mg/mL): 0.2 % w/w
- Total degradation ([1]; 48 h, 0.3 mg/mL): 0.2 % w/w
- Total degradation ([1]; 48 h, 2 mg/mL): 0.2 % w/w
- % assay/degs, difference from T = 0 ([2]; pH 1.8, 2-8° C., 2 h): 0.0%
- Total degs, difference from T = 0 ([2]; pH 1.8, 2-8° C., 2 h): 0.0%
- pH, difference from T = 0 ([2]; pH 1.8, 2-8° C., 2 h): 0.0
- % assay/degs, difference from T = 0 ([2]; pH 1.8, 2-8° C., 3 h): −0.2%
- Total degs, difference from T = 0 ([2]; pH 1.8, 2-8° C., 3 h): 0.0%
- pH, difference from T = 0 ([2]; pH 1.8, 2-8° C., 3 h): 0.0
- % assay/degs, difference from T = 0 ([2]; pH 1.8, 2-8° C., 8 h): −0.2%
- Total degs, difference from T = 0 ([2]; pH 1.8, 2-8° C., 8 h): 0.1%
- pH, difference from T = 0 ([2]; pH 1.8, 2-8° C., 8 h): 0.0
- % assay/degs, difference from T = 0 ([2]; pH 1.8, 2-8° C., 24 h): −0.5%
- Total degs, difference from T = 0 ([2]; pH 1.8, 2-8° C., 24 h): 0.2%
- pH, difference from T = 0 ([2]; pH 1.8, 2-8° C., 24 h): 0.0
- % assay/degs, difference from T = 0 ([2]; pH 1.8, 2-8° C., 48 h): −0.2%
- Total degs, difference from T = 0 ([2]; pH 1.8, 2-8° C., 48 h): 0.4%
- pH, difference from T = 0 ([2]; pH 1.8, 2-8° C., 48 h): 0.0
- % assay/degs, difference from T = 0 ([2]; pH 1.8, Ambient, 1 h): −0.3%
- Total degs, difference from T = 0 ([2]; pH 1.8, Ambient, 1 h): 0.0%
- pH, difference from T = 0 ([2]; pH 1.8, Ambient, 1 h): 0.0
- % assay/degs, difference from T = 0 ([2]; pH 1.8, Ambient, 2 h): −0.1%
- Total degs, difference from T = 0 ([2]; pH 1.8, Ambient, 2 h): 0.1%
- pH, difference from T = 0 ([2]; pH 1.8, Ambient, 2 h): 0.0
- % assay/degs, difference from T = 0 ([2]; pH 1.8, Ambient, 3 h): −0.3%
- Total degs, difference from T = 0 ([2]; pH 1.8, Ambient, 3 h): 0.1%
- pH, difference from T = 0 ([2]; pH 1.8, Ambient, 3 h): 0.0
- % assay/degs, difference from T = 0 ([2]; pH 1.8, Ambient, 8 h): −0.4%
- Total degs, difference from T = 0 ([2]; pH 1.8, Ambient, 8 h): 0.4%
- pH, difference from T = 0 ([2]; pH 1.8, Ambient, 8 h): 0.0
- % assay/degs, difference from T = 0 ([2]; pH 1.8, Ambient, 24 h): −1.3%
- Total degs, difference from T = 0 ([2]; pH 1.8, Ambient, 24 h): 1.2%
- pH, difference from T = 0 ([2]; pH 1.8, Ambient, 24 h): 0.0
- % assay/degs, difference from T = 0 ([2]; pH 1.8, Ambient, 48 h): −3.5%
- Total degs, difference from T = 0 ([2]; pH 1.8, Ambient, 48 h): 2.4%
- pH, difference from T = 0 ([2]; pH 1.8, Ambient, 48 h): 0.0
- % assay/degs ([2]; pH 1.8): 99.4%
- Total degs ([2]; pH 1.8): 0.2%
- pH ([2]; pH 1.8): 1.8
- % assay/degs, difference from T = 0 ([2]; pH 2.0, 2-8° C., 2 h): 0.6%
- Total degs, difference from T = 0 ([2]; pH 2.0, 2-8° C., 2 h): 0.0%
- pH, difference from T = 0 ([2]; pH 2.0, 2-8° C., 2 h): 0.0
- % assay/degs, difference from T = 0 ([2]; pH 2.0, 2-8° C., 3 h): 0.2%
- Total degs, difference from T = 0 ([2]; pH 2.0, 2-8° C., 3 h): 0.0%
- pH, difference from T = 0 ([2]; pH 2.0, 2-8° C., 3 h): 0.0
- % assay/degs, difference from T = 0 ([2]; pH 2.0, 2-8° C., 8 h): −0.1%
- Total degs, difference from T = 0 ([2]; pH 2.0, 2-8° C., 8 h): 0.1%
- pH, difference from T = 0 ([2]; pH 2.0, 2-8° C., 8 h): 0.0
- % assay/degs, difference from T = 0 ([2]; pH 2.0, 2-8° C., 24 h): 0.2%
- Total degs, difference from T = 0 ([2]; pH 2.0, 2-8° C., 24 h): 0.1%
- pH, difference from T = 0 ([2]; pH 2.0, 2-8° C., 24 h): 0.0
- % assay/degs, difference from T = 0 ([2]; pH 2.0, 2-8° C., 48 h): −0.5%
- Total degs, difference from T = 0 ([2]; pH 2.0, 2-8° C., 48 h): 0.3%
- pH, difference from T = 0 ([2]; pH 2.0, 2-8° C., 48 h): 0.0
- % assay/degs, difference from T = 0 ([2]; pH 2.0, Ambient, 1 h): 0.1%
- Total degs, difference from T = 0 ([2]; pH 2.0, Ambient, 1 h): 0.0%
- pH, difference from T = 0 ([2]; pH 2.0, Ambient, 1 h): 0.0
- % assay/degs, difference from T = 0 ([2]; pH 2.0, Ambient, 2 h): −0.2%
- Total degs, difference from T = 0 ([2]; pH 2.0, Ambient, 2 h): 0.1%
- pH, difference from T = 0 ([2]; pH 2.0, Ambient, 2 h): 0.0
- % assay/degs, difference from T = 0 ([2]; pH 2.0, Ambient, 3 h): 0.3%
- Total degs, difference from T = 0 ([2]; pH 2.0, Ambient, 3 h): 0.1%
- pH, difference from T = 0 ([2]; pH 2.0, Ambient, 3 h): 0.0
- % assay/degs, difference from T = 0 ([2]; pH 2.0, Ambient, 8 h): −0.2%
- Total degs, difference from T = 0 ([2]; pH 2.0, Ambient, 8 h): 0.2%
- pH, difference from T = 0 ([2]; pH 2.0, Ambient, 8 h): 0.0
- % assay/degs, difference from T = 0 ([2]; pH 2.0, Ambient, 24 h): −0.6%
- Total degs, difference from T = 0 ([2]; pH 2.0, Ambient, 24 h): 0.8%
- pH, difference from T = 0 ([2]; pH 2.0, Ambient, 24 h): 0.0
- % assay/degs, difference from T = 0 ([2]; pH 2.0, Ambient, 48 h): −1.8%
- Total degs, difference from T = 0 ([2]; pH 2.0, Ambient, 48 h): 1.6%
- pH, difference from T = 0 ([2]; pH 2.0, Ambient, 48 h): 0.0
- % assay/degs ([2]; pH 2.0): 99.2%
- Total degs ([2]; pH 2.0): 0.2%
- pH ([2]; pH 2.0): 2.0
- % assay/degs, difference from T = 0 ([2]; pH 3.5, 2-8° C., 2 h): 0.6%
- Total degs, difference from T = 0 ([2]; pH 3.5, 2-8° C., 2 h): 0.0%
- pH, difference from T = 0 ([2]; pH 3.5, 2-8° C., 2 h): 0.0
- % assay/degs, difference from T = 0 ([2]; pH 3.5, 2-8° C., 8 h): 0.3%
- Total degs, difference from T = 0 ([2]; pH 3.5, 2-8° C., 8 h): 0.0%
- pH, difference from T = 0 ([2]; pH 3.5, 2-8° C., 8 h): 0.0
- % assay/degs, difference from T = 0 ([2]; pH 3.5, 2-8° C., 24 h): 0.7%
- Total degs, difference from T = 0 ([2]; pH 3.5, 2-8° C., 24 h): 0.0%
- pH, difference from T = 0 ([2]; pH 3.5, 2-8° C., 24 h): −0.1
- % assay/degs, difference from T = 0 ([2]; pH 3.5, 2-8° C., 48 h): 0.5%
- Total degs, difference from T = 0 ([2]; pH 3.5, 2-8° C., 48 h): 0.0%
- pH, difference from T = 0 ([2]; pH 3.5, 2-8° C., 48 h): 0.0
- % assay/degs, difference from T = 0 ([2]; pH 3.5, 2-8° C., 72 h): 0.7%
- Total degs, difference from T = 0 ([2]; pH 3.5, 2-8° C., 72 h): 0.0%
- pH, difference from T = 0 ([2]; pH 3.5, 2-8° C., 72 h): −0.1
- % assay/degs, difference from T = 0 ([2]; pH 3.5, 2-8° C., 96 h): 0.2%
- Total degs, difference from T = 0 ([2]; pH 3.5, 2-8° C., 96 h): 0.0%
- pH, difference from T = 0 ([2]; pH 3.5, 2-8° C., 96 h): 0.0
- % assay/degs, difference from T = 0 ([2]; pH 3.5, 2-8° C., 168 h): 0.6%
- Total degs, difference from T = 0 ([2]; pH 3.5, 2-8° C., 168 h): 0.0%
- pH, difference from T = 0 ([2]; pH 3.5, 2-8° C., 168 h): 0.0
- % assay/degs, difference from T = 0 ([2]; pH 3.5, Ambient, 2 h): 0.6%
- Total degs, difference from T = 0 ([2]; pH 3.5, Ambient, 2 h): 0.0%
- pH, difference from T = 0 ([2]; pH 3.5, Ambient, 2 h): 0.0
- % assay/degs, difference from T = 0 ([2]; pH 3.5, Ambient, 8 h): 0.2%
